Measured values from PMC7881240, “Calmodulin regulates the olfactory performance in Drosophila melanogaster” (Scientific Reports, 2021).

Experiments:
Orco [1] = biological target: T1, Orco (Drosophila melanogaster, UniProt Q9VNB5); test: GCaMP6f Ca2+ imaging of OSNs, concentration-response
T1 construct: native OrX/OrcoWT in olfactory sensory neurons, ex vivo antenna; with OrX
T1 sequence (Q9VNB5 1-486): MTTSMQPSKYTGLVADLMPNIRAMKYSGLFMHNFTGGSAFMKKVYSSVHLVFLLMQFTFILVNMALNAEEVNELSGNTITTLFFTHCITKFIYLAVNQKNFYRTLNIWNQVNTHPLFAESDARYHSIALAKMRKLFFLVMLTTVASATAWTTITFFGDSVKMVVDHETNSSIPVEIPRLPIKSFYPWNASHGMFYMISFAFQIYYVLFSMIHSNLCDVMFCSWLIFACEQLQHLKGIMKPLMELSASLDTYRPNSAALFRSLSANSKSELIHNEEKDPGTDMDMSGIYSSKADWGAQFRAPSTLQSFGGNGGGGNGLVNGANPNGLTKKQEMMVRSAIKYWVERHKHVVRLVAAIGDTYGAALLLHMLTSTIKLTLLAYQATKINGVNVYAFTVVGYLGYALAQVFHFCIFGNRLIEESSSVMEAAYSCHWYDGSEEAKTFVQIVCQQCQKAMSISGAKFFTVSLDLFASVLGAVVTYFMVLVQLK

Orco [2] = biological target: T2, Orco (Drosophila melanogaster, UniProt Q9VNB5, K339N); test: as above
T2 construct: OrX/OrcoK339N in olfactory sensory neurons (Orco1 null background), ex vivo antenna; with OrX
T2 sequence (Q9VNB5 whole entry K339N): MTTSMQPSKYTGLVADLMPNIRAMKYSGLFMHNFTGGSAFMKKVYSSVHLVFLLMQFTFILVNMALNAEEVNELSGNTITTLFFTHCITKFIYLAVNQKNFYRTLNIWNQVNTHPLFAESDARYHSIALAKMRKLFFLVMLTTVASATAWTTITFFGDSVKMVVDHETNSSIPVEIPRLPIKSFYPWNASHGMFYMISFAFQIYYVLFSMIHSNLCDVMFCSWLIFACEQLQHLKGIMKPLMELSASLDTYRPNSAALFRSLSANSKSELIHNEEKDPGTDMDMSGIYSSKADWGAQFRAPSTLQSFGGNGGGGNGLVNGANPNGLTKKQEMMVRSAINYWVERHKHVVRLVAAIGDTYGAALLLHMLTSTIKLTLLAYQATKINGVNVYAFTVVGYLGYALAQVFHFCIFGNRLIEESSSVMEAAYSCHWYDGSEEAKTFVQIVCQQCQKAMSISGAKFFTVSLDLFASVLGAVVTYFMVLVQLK

Or22a = biological target: T3, Or22a (Drosophila melanogaster, UniProt P81909); test: GCaMP6f Ca2+ imaging of Or22a OSNs, concentration-response
T3 construct: Or22a/OrcoWT in Or22a-expressing olfactory sensory neurons, ex vivo antenna; with Orco
T3 sequence (P81909 1-397): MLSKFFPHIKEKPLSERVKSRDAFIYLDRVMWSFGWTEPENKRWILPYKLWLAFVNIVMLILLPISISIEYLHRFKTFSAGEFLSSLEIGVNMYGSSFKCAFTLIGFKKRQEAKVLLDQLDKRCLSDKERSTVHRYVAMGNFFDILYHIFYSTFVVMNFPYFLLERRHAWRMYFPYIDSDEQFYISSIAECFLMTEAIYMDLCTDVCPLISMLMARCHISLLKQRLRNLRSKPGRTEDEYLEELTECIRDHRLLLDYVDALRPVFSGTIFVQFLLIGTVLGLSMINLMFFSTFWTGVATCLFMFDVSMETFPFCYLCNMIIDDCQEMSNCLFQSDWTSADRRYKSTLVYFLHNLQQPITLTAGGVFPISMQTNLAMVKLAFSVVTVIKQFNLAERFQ
T3 sequence (Q9VNB5 1-486 partner): T1 sequence (Q9VNB5 1-486)

Structure (SMILES) | EC50 (Orco [1]) | EC50 (Orco [2]) | EC50 (Or22a)
CCc1ccc(NC(=O)CSc2nnc(-c3cccnc3)n2CC)cc1 [VUAA1, 2-(4-Ethyl-5-(pyridin-3-yl)-4H-1,2,4-triazol-3-ylthio)-N-(4-ethylphenyl) acetamide] | 88 µM | 85 µM | 
CCCCCC(=O)OCC [ethyl hexanoate] |  |  | 13 µM
